Experimental data reported in patent publication US20250354986A1, “AFFINITY ENCODED OSCILLATOR ARRAYS, METHODS, AND RELATED ASPECTS FOR MEASURING MOLECULAR BINDING KINETICS” (ARIZONA BOARD OF REGENTS ON BEHALF OF ARIZONA STATE …, priority 2024, published 2025).
Structures can show the parent of a compound that is named as a salt.

Experiments:
[1] = system: K082 virions with no GPCR displayed on the envelope; assay: Control nano-oscillators: K082 virion with no GPCR, or AuNP only; settings: K082 virion with no GPCR displayed, or AuNP only without virion
[2] = stated without a test; cited from earlier work
decoding sequence 1 = settings: for averaged equilibrium affinity constant (KA): first barcode group hybridized with its DNA decoding sequence, 37 individual nano-oscillators per probe; for Median of amplitude change for association: group 1 barcode nano-oscillators, hybridization signal
Description: (§1) To enable affinity-based barcoding, it is important to ensure nanoarrays are addressable by distinct affinities induced by different nucleotides mismatches. […] Perfectly matched, two and three-nucleotide mismatched complementary single DNA strains were used as barcode sequences on the nanocomplexes. Attributed to the charge-sensitive detection capability of nano-oscillators, hybridization of the charge-rich decoding DNA onto the nano-oscillators were recorded in real-time, enabling the calculation of hybridization affinities.
(§2) In FIG. 8, for each kind of barcode sequence, 37 individual nano-oscillators were measured for statistical study.
(§3) The second step of the measurement is decoding, which identifies the type of GPCRs on individual nano-oscillators, and was achieved by sequentially measuring the binding affinity of all decoding sequences. Each round of decoding flowed 50 nM of a specific readout sequence to hybridize with the barcodes on the nano-oscillator for 550 seconds, followed by buffer washing to dissociate the readout sequence for a duration of 250 seconds. Conducting the ligand screening before decoding can prevent potential issue of saturated oscillation amplitude change that may arise from excessively high negatively charged nano-oscillators after hybridization with the decoding sequence. Throughout all experiments, the injected sample was driven by a syringe pump and flowed onto the upper right portion of the field-of-view to minimize mass transport issues.
(§4) After recording the images, a region of interest (ROI) was selected on each particle (covering the parabolic tail), and the mean intensity within the ROI was calculated as the plasmonic intensity. An adjacent region with the same size was selected as the reference region, and its intensity was used to remove common noise from the ROI. The oscillation amplitude was obtained in every second using fast Fourier transform (FFT). The FFT intensity at the oscillation frequency was then plotted against time to illustrate both the binding trend and decoding process. Response curve fitting and calculation of binding kinetic constants were conducted using Scrubber (BioLogic Software). All data were visualized using Origin and MATLAB.

decoding sequence 2 = settings: for Median of amplitude change for association: group 2 barcode nano-oscillators, hybridization signal; for averaged equilibrium affinity constant (KA): second barcode group hybridized with its DNA decoding sequence, 37 individual nano-oscillators per probe
Description: as §1, §2, §3, §4

For `CC(C)NCC(O)COc1cccc2ccccc12` (centres unmarked) [Propranolol, Propranolol hydrochloride], the “oscillation amplitude response of control nano-oscillators to ligand” value [1] was “not obvious responding”.
For Tocrifluor, the “charge at pH 7.4” value [2] is given as “neutral”.
In the case of “biotin-(CH2)6-5′-ACACTACCTCGGCCCTCCTC-3′ [barcode 2 (group 1)]”, the “averaged equilibrium affinity constant (KA)” value (decoding sequence 1) is reported as “(5.3±0.74)×10^7 M^−1” and the “Median of amplitude change for association” value (“Median of amplitude change” for short) (decoding sequence 1) is reported as 9.6 nm.
In the case of “biotin-(CH2)6-5′-ACAATACCTCGGCCCTTCTC-3′ [barcode 1 (group 1)]”, the “averaged equilibrium affinity constant (KA)” value (decoding sequence 1) is reported as “(8.1±1.1)×10^8 M^−1” and the “Median of amplitude change” value (decoding sequence 1) is reported as 9.7 nm.
In the case of “biotin-(CH2)6-5′-GAGTTGCTACAGACCTTCGT-3′ [barcode 1 (group 2)]”, the “Median of amplitude change” value (decoding sequence 2) is reported as 11.6 nm and the “averaged equilibrium affinity constant (KA)” value (decoding sequence 2) is reported as “(7.1±0.98)×10^8 M^−1”.
With “biotin-(CH2)6-5′-GAGTTACTACAGACCATCGT-3′ [barcode 2 (group 2)]” the “Median of amplitude change” value (decoding sequence 2) was 10.9 nm and the “averaged equilibrium affinity constant (KA)” value (decoding sequence 2) was “(6.5±1.1)×10^7 M^−1”.
With “biotin-(CH2)6-5′-ACACTACCTCAGCCCTCCTC-3′ [barcode 3 (group 1)]” the “averaged equilibrium affinity constant (KA)” value (decoding sequence 1) was “(5.9±0.82)×10^6 M^−1” and the “Median of amplitude change” value (decoding sequence 1) was 7.5 nm.
For “biotin-(CH2)6-5′-ACACTACCTCAGCCCTCCTC-3′ [barcode 3 (group 2)]”, the “Median of amplitude change” value (decoding sequence 2) was 7.2 nm and the “averaged equilibrium affinity constant (KA)” value (decoding sequence 2) was “(2.0±0.78)×10^6 M^−1”.
